From patent publication US7365050B2, “Methods for modulating a drug-related effect or behavior” (The Regents of the University of California, priority 2003, dated 2008)
Like-named read-outs stand apart in the source and are kept apart here.

Tests used:
[1] = test system: Cav2.2 null mice and wild-type mice
Method: See Example 2. Mice were injected intraperitoneally with saline and placed in the central, access chamber of a three-chambered apparatus. The door to a second chamber (saline-paired chamber), off the central chamber, was then opened to allow mice access to the second chamber, into which the mice entered. The door was then closed and the mice remained in the second chamber for 5 min before being removed and returned to the home cage. On the following day, the procedure was repeated, except that the mice were given an intraperitoneal injection of ethanol (at the doses indicated in FIG. 2) and allowed to enter, by the same procedure as for the saline-paired side, a third chamber (drug-paired chamber), instead of the saline-paired chamber. The ethanol and saline-paired chambers differed in floor texture and wall color. Drug-paired and saline-paired chambers were assigned randomly, i.e., some mice received ethanol in the same type of chamber in which other mice received saline. This process, saline one day and ethanol the next, was then repeated three times further, resulting in a total of four saline/drug-chamber pairings. On the day immediately following the completion of this 8-day training period, the mice were placed into the central chamber and allowed free access to all three chambers for a total of 30 minutes. Time spent in each of the three chambers was analyzed for each genotype by paired two-tailed t-tests with Bonferroni correction for multiple comparisons. […] To control for a baseline preference for a particular chamber type, all mice received a 30-min test in the chambers prior to training.
Mice were trained in a conditioned place preference (CPP) apparatus (Med Associates, St. Albans, Vt.) that consisted of white and black chambers with different floor textures (black side with rod floor vs. white side with grid floor) that were separated by a central gray access compartment. To measure baseline preference for the test chambers, mice were allowed to roam freely in the entire apparatus for 30 min during the first day of the test. […] The ethanol-paired chamber was assigned randomly across subjects. For conditioning, mice were treated with ethanol (1.2, 2.0, or 2.8 grams/kg v/v in 0.9% saline) and immediately placed in one side for 5 min. On the next day, they were injected with an equivalent volume of saline and placed in the other side. This sequence was repeated four times for a total of 4 days ethanol and 4 days saline, with two rest days halfway through training. On the test day immediately following the final training day, mice were allowed free access to all 3 compartments for 30 min. CPP was assessed by comparing the time spent in the drug-paired chamber on the test day with the time spent in the saline-paired chamber and the central chamber on the test day by paired two-tailed t-tests with Bonferroni correction for multiple comparisons. The mice were considered to have developed CPP for ethanol if they spent more time in the ethanol-paired chamber compared with the other two chambers on the test day.

[2] = test system: Cav2.2 null mice and wild-type littermates; conditions: 2 g/kg ethanol i.p., Cav2.2 null vs wild-type
Method: Mice were trained to remain for 180 s on a rotarod apparatus (Ugo Basile Biological Research, Varese, Italy) rotating at a fixed rate of 20 rpm. The first test session was carried out the following day. During a test session, each mouse was placed on the rotarod and the time taken for the animal to fall off the rod was recorded. Mice were then injected intraperitoneally with ethanol and re-tested every 15 min for 1 h. […] Three further days later, the mice were trained to remain on an accelerating (4-40 rpm) rotarod for 300s.

[3] = test system: Cav2.2 null mice and wild-type littermates; conditions: solutions containing 6% or 10% ethanol
[4] = 4 g/kg ethanol i.p., Cav2.2 null vs wild-type
[5] = test system: Cav2.2 null mice and wild-type littermates
Method: The conditioned taste aversion study was carried out according to established protocols ([…] and Boyce, 2002) (Chester et al., 2003). Animals were singly housed and acclimatized to limited water access by allowing them access to water for decreasing periods of time (10, 8, 6 and 4 h per day on subsequent days) followed by 2-h daily access for one week. Following acclimatization, they were placed on the conditioning schedule consisting of 1-h access (13:00 to 14:00h) to the conditioned stimulus (CS, a solution of 1.2% (w/v) saline), followed immediately by a saline (0.9% w/v) injection. […] The following day they were allowed two hours of access to drinking water (13:00 to 15:00). This 2-d procedure constituted a single trial and was repeated 7 times to establish baseline consumption levels of 1.2% NaCl. […] Data were compared by two-way ANOVA with factors for injection and genotype.

[6] = test system: Cav2.2 null mice and littermates; conditions: alcohol vapor 3 days, 16 hours per day; Cav2.2 null vs littermates
Method: Handling-induced convulsions (HIC) were measured at various intervals over the next 48 hours.

N-type calcium channel = N-type calcium channel (Rattus norvegicus, UniProt Q02294); conditions: PC12 cells, 25-200 mM ethanol for 2-8 days; cited from earlier work
Sequence of N-type calcium channel (Q02294 whole entry, looked up): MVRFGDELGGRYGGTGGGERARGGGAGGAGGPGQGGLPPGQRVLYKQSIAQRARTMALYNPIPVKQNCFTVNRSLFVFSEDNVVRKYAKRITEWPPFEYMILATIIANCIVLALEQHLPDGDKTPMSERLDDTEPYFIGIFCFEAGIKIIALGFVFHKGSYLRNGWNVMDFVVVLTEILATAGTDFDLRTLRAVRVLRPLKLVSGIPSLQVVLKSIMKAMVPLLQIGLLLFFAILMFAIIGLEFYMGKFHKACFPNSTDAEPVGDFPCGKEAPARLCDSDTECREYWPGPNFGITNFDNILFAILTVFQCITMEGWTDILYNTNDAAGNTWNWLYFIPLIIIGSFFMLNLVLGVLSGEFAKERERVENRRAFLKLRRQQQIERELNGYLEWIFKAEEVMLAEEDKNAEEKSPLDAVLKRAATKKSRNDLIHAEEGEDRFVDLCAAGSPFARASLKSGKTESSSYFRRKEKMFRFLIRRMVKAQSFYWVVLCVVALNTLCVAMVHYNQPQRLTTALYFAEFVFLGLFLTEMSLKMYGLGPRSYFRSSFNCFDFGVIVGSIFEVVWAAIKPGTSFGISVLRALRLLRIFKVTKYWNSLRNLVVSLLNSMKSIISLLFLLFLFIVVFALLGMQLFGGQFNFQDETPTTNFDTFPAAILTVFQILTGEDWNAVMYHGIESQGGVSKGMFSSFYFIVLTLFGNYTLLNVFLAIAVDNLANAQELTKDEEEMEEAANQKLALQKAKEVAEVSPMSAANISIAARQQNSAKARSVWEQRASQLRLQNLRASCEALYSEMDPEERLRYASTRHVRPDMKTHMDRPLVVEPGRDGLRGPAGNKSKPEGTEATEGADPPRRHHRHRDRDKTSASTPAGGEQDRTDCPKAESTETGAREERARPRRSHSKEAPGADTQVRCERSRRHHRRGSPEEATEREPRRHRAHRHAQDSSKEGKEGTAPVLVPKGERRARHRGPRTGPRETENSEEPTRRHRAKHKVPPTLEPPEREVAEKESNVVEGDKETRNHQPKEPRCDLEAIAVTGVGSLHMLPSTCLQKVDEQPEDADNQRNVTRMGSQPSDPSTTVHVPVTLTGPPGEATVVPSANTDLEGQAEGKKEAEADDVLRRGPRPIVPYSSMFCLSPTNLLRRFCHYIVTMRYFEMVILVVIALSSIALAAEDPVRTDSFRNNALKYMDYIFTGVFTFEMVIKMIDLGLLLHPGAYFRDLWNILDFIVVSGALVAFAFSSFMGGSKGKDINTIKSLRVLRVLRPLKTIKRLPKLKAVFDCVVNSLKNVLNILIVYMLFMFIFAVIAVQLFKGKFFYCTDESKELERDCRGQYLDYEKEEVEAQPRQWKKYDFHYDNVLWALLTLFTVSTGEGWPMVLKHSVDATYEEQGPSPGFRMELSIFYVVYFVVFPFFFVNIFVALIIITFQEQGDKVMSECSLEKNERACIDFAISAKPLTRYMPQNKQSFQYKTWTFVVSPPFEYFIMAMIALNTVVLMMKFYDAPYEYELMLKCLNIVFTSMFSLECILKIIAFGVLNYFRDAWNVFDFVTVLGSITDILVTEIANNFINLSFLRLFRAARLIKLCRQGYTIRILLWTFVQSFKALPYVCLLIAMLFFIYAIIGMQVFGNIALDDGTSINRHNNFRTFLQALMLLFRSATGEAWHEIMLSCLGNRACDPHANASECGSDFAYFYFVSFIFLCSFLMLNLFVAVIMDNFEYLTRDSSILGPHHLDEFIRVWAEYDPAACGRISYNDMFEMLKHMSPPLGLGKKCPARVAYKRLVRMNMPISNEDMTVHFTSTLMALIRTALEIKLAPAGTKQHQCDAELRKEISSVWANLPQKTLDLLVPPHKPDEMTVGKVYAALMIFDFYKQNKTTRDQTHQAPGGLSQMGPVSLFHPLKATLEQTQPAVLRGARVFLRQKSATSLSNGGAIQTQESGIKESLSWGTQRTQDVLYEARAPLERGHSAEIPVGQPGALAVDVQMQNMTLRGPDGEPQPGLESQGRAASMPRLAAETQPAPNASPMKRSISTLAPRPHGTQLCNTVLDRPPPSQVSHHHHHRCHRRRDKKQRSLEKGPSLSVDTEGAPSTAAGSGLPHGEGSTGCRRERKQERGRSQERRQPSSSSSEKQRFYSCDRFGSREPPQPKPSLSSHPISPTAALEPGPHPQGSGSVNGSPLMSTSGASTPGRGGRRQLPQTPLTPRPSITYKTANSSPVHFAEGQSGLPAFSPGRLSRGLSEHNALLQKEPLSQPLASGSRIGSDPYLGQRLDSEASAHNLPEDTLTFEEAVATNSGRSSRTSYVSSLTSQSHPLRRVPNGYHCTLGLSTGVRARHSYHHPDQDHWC

[7] = test system: Cav2.2 null mice and wild-type littermates; remark: listed apart in the source
Method: Both groups of mice were injected intraperitoneally with ethanol (3.6 g/kg in 0.9% w/v saline) and then assessed for loss of the righting reflex (LORR). Loss of the righting reflex was defined as a mouse being unable to right itself 3 times within 30 sec. Upon losing the righting reflex, mice were placed on their backs and the time taken for them to regain the righting reflex was measured. A mouse was defined as having regained the righting reflex when it was able to right itself 3 times within 30 sec. A blood sample was taken from the tail of each mouse when it regained the righting reflex in order to determine blood ethanol concentration. Blood was centrifuged at 10,000 g and serum blood alcohol concentration determined using an Analox AM-1 analyser (Analox Instruments, Luneburg Mass.). We determined the threshold concentration of ethanol required to induce LORR using the “up-and-down” method (Dixon, 1965; Findlay et al., 2002). […] If the first mouse lost the righting reflex, then the next mouse was given a lower ethanol dose. […] The log dose interval was 0.0138, corresponding to approximately a 0.1 g/kg difference between doses. The ED50 value was determined as described (Findlay et al., 2002), with 95% confidence intervals determined by the following equation: 95% CI=dosing increment×square root of (2/n)×1.96, where n=the last n trials (6) and 1.96 reflects the 0.05 α level (Dixon, 1965).

Which results are given for CCO [ethanol]?
conditioned place preference ([1]; Cav2.2 null mice, 2 g/kg ethanol): completely absent; conditioned place preference ([1]; both genotypes, 1.2 g/kg and 2.8 g/kg ethanol): Neither genotype showed place preference or aversion; conditioned place preference ([1]; inbred 129/SvJae background, Cav2.2 null): no conditioned place preference; conditioned place preference ([1]; inbred 129/SvJae background, wild-type, ethanol 1.5 g/kg): significant conditioned place preference; conditioned place preference ([1]; wild-type mice, 2 g/kg ethanol): robust place preference; latency to fall, accelerating (4-40 rpm) rotarod [2]: shorter latency to fall; alcohol consumption, Cav2.2 null mice less than wild-type littermates [3]: about 30%; clearance of ethanol from the blood [4]: no difference between the genotypes; conditioned taste aversion to 1.2% NaCl ([5]; 2 g/kg ethanol injection, both genotypes): both genotypes rapidly developed conditioned taste aversion; magnitude of conditioned taste aversion ([5]; 2 g/kg ethanol, Cav2.2 null vs wild-type): reduced; handling-induced convulsions during alcohol withdrawal [6]: increased handling-induced convulsions; binding sites for 125I-ω-conotoxin GVIA (N-type calcium channel): reversible time- and concentration-dependent increase; blood ethanol concentration at regaining righting reflex, Cav2.2 null vs wild-type ([7]; 3.6 g/kg ethanol i.p.): higher blood ethanol concentration; decrease in duration of ethanol-induced LORR, Cav2.2 null vs wild-type ([7]; 3.6 g/kg ethanol i.p.): 70%; increase in threshold ethanol dose that induces LORR, Cav2.2 null vs wild-type ([7]; 10% v/v ethanol i.p., up-and-down method): 16%; duration of ethanol-induced LORR ([7]; inbred 129/SvJae background, Cav2.2 null vs wild-type): decreased duration
